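Results reflect a 48-hour exposure of cells in 96-well plates to compound at five concentrations. GI50 = concentration required for 50% inhibition of growth.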 Active and inactive are the calls of the source. Cut-off read from the data, not from the text of the source: active = GI50 up to about 1.1 µM and inactive = higher.
What was measured:
Test in all cases: DTP human tumour cell line panel, 48 h
TK-10 = system: TK-10
UACC-257 = system: UACC-257
MDA-N = system: MDA-N
OVCAR-4 = system: OVCAR-4
MOLT-4 = system: MOLT-4
NCI/ADR-RES = system: NCI/ADR-RES
SK-MEL-28 = system: SK-MEL-28
SK-MEL-5 = system: SK-MEL-5
786-0 = system: 786-0
SF-295 = system: SF-295
NCI-H23 = system: NCI-H23
PC-3 = system: PC-3
MCF7 = system: MCF7
T47D = system: T47D
Malme-3M = system: Malme-3M
Hs-578T = system: Hs-578T

| Compound | GI50 (TK-10) | GI50 (UACC-257) | GI50 (MDA-N) | GI50 (OVCAR-4) | GI50 (MOLT-4) | GI50 (NCI/ADR-RES) | GI50 (SK-MEL-28) | GI50 (SK-MEL-5) | GI50 (786-0) | GI50 (SF-295) | GI50 (NCI-H23) | GI50 (PC-3) | GI50 (MCF7) | GI50 (T47D) | GI50 (Malme-3M) | GI50 (Hs-578T) |
| --- | --- | --- | --- | --- | --- | --- | --- | --- | --- | --- | --- | --- | --- | --- | --- | --- |
| O=c1c2ccccc2n2c(S)nnc2n1-c1ccccc1 | > 100 µM (inactive) | > 100 µM (inactive) | > 100 µM (inactive) | > 100 µM (inactive) | > 100 µM (inactive) | > 100 µM (inactive) | > 100 µM (inactive) | > 100 µM (inactive) | > 100 µM (inactive) | > 100 µM (inactive) | > 100 µM (inactive) | > 100 µM (inactive) | > 100 µM (inactive) | > 100 µM (inactive) | > 100 µM (inactive) | – |
| COc1cc2nc(-c3cccs3)nc(Cl)c2cc1OC | > 100 µM (inactive) | 68.9 µM (inactive) | – | 52.5 µM (inactive) | – | > 100 µM (inactive) | > 100 µM (inactive) | 12 µM (inactive) | > 100 µM (inactive) | > 100 µM (inactive) | > 100 µM (inactive) | > 100 µM (inactive) | 23.4 µM (inactive) | > 100 µM (inactive) | > 100 µM (inactive) | > 100 µM (inactive) |
| Nc1cc2[nH]c(=O)c3cc(Cl)ccc3c2cc1Cl | 11.8 µM (inactive) | 21.1 µM (inactive) | – | 31.9 µM (inactive) | 4.11 µM (inactive) | 13.3 µM (inactive) | 60.4 µM (inactive) | 12.1 µM (inactive) | 14.8 µM (inactive) | 9.12 µM (inactive) | 15.8 µM (inactive) | – | 0.149 µM (active) | 12.3 µM (inactive) | 14.7 µM (inactive) | 39.1 µM (inactive) |
| CC1(C)O[C@@H](CBr)C[C@H](C[C@H]2C[C@@H](O)C[C@@H](CCOCc3ccccc3)O2)O1 | 20.4 µM (inactive) | 19 µM (inactive) | – | 21.6 µM (inactive) | 47.1 µM (inactive) | 18.7 µM (inactive) | 25.2 µM (inactive) | 30.3 µM (inactive) | 19.4 µM (inactive) | 17 µM (inactive) | 16.3 µM (inactive) | 20.1 µM (inactive) | 20 µM (inactive) | 14.9 µM (inactive) | 17.3 µM (inactive) | 25.6 µM (inactive) |
| O=C1/C(=C/c2ccc([N+](=O)[O-])cc2)C(=O)N(c2ccccc2)C1c1ccccc1 (stereo not drawn) | > 10 µM (inactive) | > 10 µM (inactive) | > 10 µM (inactive) | > 10 µM (inactive) | > 10 µM (inactive) | > 10 µM (inactive) | > 10 µM (inactive) | > 10 µM (inactive) | > 10 µM (inactive) | > 10 µM (inactive) | > 10 µM (inactive) | > 10 µM (inactive) | > 10 µM (inactive) | > 10 µM (inactive) | – | > 10 µM (inactive) |
| O=C1NC(=S)N/C1=C/c1c(-c2ccccc2)[nH]c2ccccc12 | 15.8 µM (inactive) | 15.6 µM (inactive) | 14.9 µM (inactive) | 16.1 µM (inactive) | 12.4 µM (inactive) | 18.6 µM (inactive) | 16.6 µM (inactive) | 13 µM (inactive) | 14 µM (inactive) | 12.8 µM (inactive) | 14.1 µM (inactive) | 12.9 µM (inactive) | 15.2 µM (inactive) | – | 13.5 µM (inactive) | 16.6 µM (inactive) |
| Cc1ccc(O)c(-c2csc(NCN3CCN(CNc4nc(-c5cc(C)ccc5O)cs4)CC3)n2)c1 | > 100 µM (inactive) | > 100 µM (inactive) | > 100 µM (inactive) | > 100 µM (inactive) | 15.2 µM (inactive) | > 100 µM (inactive) | > 100 µM (inactive) | > 100 µM (inactive) | > 100 µM (inactive) | > 100 µM (inactive) | > 100 µM (inactive) | > 100 µM (inactive) | > 100 µM (inactive) | – | > 100 µM (inactive) | > 100 µM (inactive) |
| O/N=C(/C(Cl)=C(Cl)Cl)C(Cl)Cl | 18.3 µM (inactive) | 19.6 µM (inactive) | 17 µM (inactive) | 16.7 µM (inactive) | 15.9 µM (inactive) | 32.2 µM (inactive) | 15.2 µM (inactive) | 19.5 µM (inactive) | 18.7 µM (inactive) | 19.2 µM (inactive) | 14.9 µM (inactive) | 17.3 µM (inactive) | 25.6 µM (inactive) | – | 28.8 µM (inactive) | 19.1 µM (inactive) |
| O=C1CCN2c3ccccc3[C@H]3Cc4cccc(c4[C@@H]2C3)CCO1 | 65.6 µM (inactive) | 29.4 µM (inactive) | 26.2 µM (inactive) | 57.1 µM (inactive) | 20.3 µM (inactive) | 23.6 µM (inactive) | 56.4 µM (inactive) | 22.1 µM (inactive) | 41.8 µM (inactive) | 32.4 µM (inactive) | 35.3 µM (inactive) | 32 µM (inactive) | 41.5 µM (inactive) | 36.7 µM (inactive) | 25.2 µM (inactive) | – |
| C=C1CC/C=C(/C(=O)O)CC[C@H]2[C@@H]1CC2(C)C | > 100 µM (inactive) | > 100 µM (inactive) | > 100 µM (inactive) | > 100 µM (inactive) | > 100 µM (inactive) | – | > 100 µM (inactive) | > 100 µM (inactive) | > 100 µM (inactive) | > 100 µM (inactive) | > 100 µM (inactive) | > 100 µM (inactive) | > 100 µM (inactive) | > 100 µM (inactive) | > 100 µM (inactive) | > 100 µM (inactive) |
| COc1cc2nc3c(=C(C#N)C#N)c4ccccc4n3c(=O)c2cc1OC | > 100 µM (inactive) | > 100 µM (inactive) | > 100 µM (inactive) | > 100 µM (inactive) | > 100 µM (inactive) | > 100 µM (inactive) | – | > 100 µM (inactive) | > 100 µM (inactive) | > 100 µM (inactive) | > 100 µM (inactive) | > 100 µM (inactive) | > 100 µM (inactive) | > 100 µM (inactive) | – | 44.3 µM (inactive) |
| Cc1nc(Nc2ccccc2Cl)sc1C(=O)CC(=O)C(=O)Nc1c(Cl)cccc1Cl | > 100 µM (inactive) | 44.4 µM (inactive) | 40 µM (inactive) | 49.1 µM (inactive) | 24 µM (inactive) | 22.3 µM (inactive) | 26.2 µM (inactive) | 31.7 µM (inactive) | 24.3 µM (inactive) | 27.5 µM (inactive) | 50.1 µM (inactive) | 27.3 µM (inactive) | 28.2 µM (inactive) | 22.8 µM (inactive) | – | 25.2 µM (inactive) |
| CCOC(=O)CCC(NC(=O)c1ccc(Nc2nc3cc(C(F)(F)F)ccc3nc2-c2ccccc2)cc1)C(=O)OCC (stereo not drawn) | 19.6 µM (inactive) | 22.8 µM (inactive) | – | 21.9 µM (inactive) | 16.9 µM (inactive) | 19.5 µM (inactive) | 26.5 µM (inactive) | 18.6 µM (inactive) | 29.6 µM (inactive) | 33.4 µM (inactive) | 20.7 µM (inactive) | > 100 µM (inactive) | 20.6 µM (inactive) | 16.4 µM (inactive) | 28.2 µM (inactive) | 19.7 µM (inactive) |
| CC1(C)OC[C@@H](/C=C\CCO[Si](c2ccccc2)(c2ccccc2)C(C)(C)C)N1C(=O)c1ccccc1 | 11.2 µM (inactive) | 3.49 µM (inactive) | 15.8 µM (inactive) | 7.76 µM (inactive) | 3.13 µM (inactive) | 9.14 µM (inactive) | 30.3 µM (inactive) | 2.51 µM (inactive) | 11.6 µM (inactive) | 13.1 µM (inactive) | 4.61 µM (inactive) | 4.07 µM (inactive) | 6.32 µM (inactive) | 4.06 µM (inactive) | – | 12.5 µM (inactive) |
| Cc1cc(Br)c(O)c(-c2cscn2)c1 | 22.4 µM (inactive) | > 10 µM (inactive) | – | 14.6 µM (inactive) | – | 24 µM (inactive) | – | 16.8 µM (inactive) | 2.43 µM (inactive) | 23.2 µM (inactive) | 14.4 µM (inactive) | 10.3 µM (inactive) | – | – | 21.8 µM (inactive) | 19.3 µM (inactive) |
| O=C(/C(=C/c1cccs1)c1ccccc1)c1ccccc1 | > 100 µM (inactive) | > 100 µM (inactive) | > 100 µM (inactive) | 35.2 µM (inactive) | 82.4 µM (inactive) | > 100 µM (inactive) | > 100 µM (inactive) | > 100 µM (inactive) | 26.2 µM (inactive) | > 100 µM (inactive) | 76.6 µM (inactive) | 25.6 µM (inactive) | > 100 µM (inactive) | > 100 µM (inactive) | – | > 100 µM (inactive) |
| CC1(C)[C@@H]2C[C@H]1C(Cc1ccccc1C[C@H]1c3cc(-c4ccccn4)ncc3[C@H]3C[C@@H]1C3(C)C)c1cc(-c3ccccn3)ncc12 (stereo partly drawn) | 0.638 µM (active) | 0.507 µM (active) | 0.578 µM (active) | 0.716 µM (active) | 0.236 µM (active) | 1.91 µM (inactive) | 0.527 µM (active) | 0.0834 µM (active) | 0.253 µM (active) | 0.408 µM (active) | 0.726 µM (active) | 0.47 µM (active) | 0.362 µM (active) | 0.294 µM (active) | 0.678 µM (active) | – |
| COc1cc2c(cc1OC)C(=O)/C(=C/c1cc(C)cc(C)c1)C2 | 21.1 µM (inactive) | 0.561 µM (active) | < 0.0156 µM (active) | 19.8 µM (inactive) | 0.504 µM (active) | 0.065 µM (active) | 40.7 µM (inactive) | 0.0239 µM (active) | 0.0982 µM (active) | < 0.0301 µM (active) | 0.313 µM (active) | 0.0667 µM (active) | 0.385 µM (active) | 0.883 µM (active) | – | 0.538 µM (active) |

Reference: ChEMBL document CHEMBL1201862, “PubChem BioAssay data set” (2004)
